Measurements published in PMC5806266, “Molecular, biochemical and kinetic analysis of a novel, thermostable lipase (LipSm) from Stenotrophomonas maltophilia Psi-1, the first member of a new bacterial lipase family (XVIII)” (Journal of Biological Research, 2018).

System: T1, LipSm
T1 construct: mature form (371 residues, signal peptide cleaved in E. coli BL21(DE3) after LAA), C-terminal 8 extra residues incl; ORF 400 residues
Test: initial velocities, 4-nitrophenol release at […] nm
Assay type: biochemical, Stenotrophomonas maltophilia
Conditions: 100 mM Tris-HCl pH 8.0, 1% w/v Triton X-100, 5% v/v DMSO, 40 °C

Compound CCCC(=O)Oc1ccc([N+](=O)[O-])cc1 [Bu-4-NPh, 4-nitrophenyl butyrate] has a Km (850 nM enzyme, limited substrate solubility) of 1930 µM.
Work on CC(=O)Oc1ccc([N+](=O)[O-])cc1 [Ac-4-NPh, 4-nitrophenyl acetate] yielded a Km (850 nM enzyme) of 473 µM.
For CCCCCCCCCCCC(=O)Oc1ccc([N+](=O)[O-])cc1 [La-4-NPh, 4-nitrophenyl laurate], the Km (2200 nM enzyme, limited substrate solubility) was 349 µM.
